From patent US20080039522A1, “Composition Containing a Complex Comprising a Metal Ion and a Carboxylate Ligand Having Anti-Inflammatory Activity” (Medical Therapies Limited, priority 2004, published 2008)
Where “and” joins values, the source holds several entries; their conditions need not be identical. Identical values can stand only once.

Columns and labels:
Sprague-Dawley rats [1] = experiment: Small intestine ulceration after oral administration; format: in vivo, rat; conditions: rats fed, oral gavage, 24 h after dosing, IndoH 10 mg kg^−1, complexes 11 mg kg^−1, mean ± sem
Method: The rats were orally administered (non-anaesthetized) the Test Samples or Test Compositions via oral gavage. The controls were dosed with CMC (2%) solution.
(§1) The total volume of the MCT or carbopol paste compositions administered per dose in the assessment of gastrointestinal ulceration was no more than 0.5 g.

Sprague-Dawley rats [2] = experiment: Inhibition of carrageenan-induced paw edema, oral administration; format: in vivo, rat; conditions: for percent inhibition in rat hind-paw diameter change, 3-hr / percent inhibition in rat hind-paw diameter change, 5-hr: oral, IndoH 10 mg kg^−1, complex 11 mg kg^−1, mean(sem); for percent inhibition in rat hind-paw diameter change, 3-hr: 3 h post carrageenan; for percent inhibition in rat hind-paw diameter change, 5-hr: 5 h post carrageenan
Method: Inhibition of Carrageenan-Induced Paw Edema: Rats were orally administered (non-anaesthetized) the Test Samples or Test Compositions via oral gavage. The control cohort was dosed solely with CMC (2%) solution. […] Exp. Ther. 1965, 150, 165-171). The thickness of the paw was measured at the ventral dorsal footpad using digital calipers prior to dosing and at 3 and 5 h after carrageenan injection. The change in the measured parameter (ΔP) for thickness of paw (Δmm) at n=3- and 5-hours after carrageenan injection is given by: ΔP=Pt=n-Pt=0 (I) The percent inhibition (% inhibition) at 3- or 5-hours in the measured parameter (P) due to the treatment is given as the difference between the % increase in the value of P in the control group and the treatment group at n=3- or 5-hours, with the % increase in the value of P given by: […]

Sprague-Dawley rats [3] = experiment: Anti-inflammatory activity (rat paw oedema) after subcutaneous or intramuscular injection; format: in vivo
Method: (§2) In Vivo Anti-inflammatory Activity and Gastric Toxicity. Groups of four rats were used for all studies. All doses were calculated as equivalent concentrations of Indo. […] For subcutaneous and intramuscular administration, rats were injected with 125-200 μL volumes of the test compositions (IndoH or [Cu2(Indo)4(OH2)2] in MCT oil). The control cohort was injected with equivalent volumes of neat MCT. Subcutaneous injections were made in the lower dorsal surface and intramuscular injections were made in the right hind thigh muscle. Inflammation was induced 1 h after dosing by injection of the formulation by an injection of carrageenan (0.1 mL, 1% w/v in isotonic saline) into the plantar region of the hind paw.
(§3) Paw volume was measured prior to dosing and at 3 h after carrageenan injection by immersing the left hind paw (to the lateral malleus) into a vessel filled with water as described in Example 5. Immediately after paw volume measurements, 24 h-fasted animals were euthanised and the stomach was excised and opened by incision along the greater curvature.

Sprague-Dawley rats [4] = experiment: Gastric toxicity after subcutaneous or intramuscular injection; conditions: rat, in vivo, 4 h
Method: as §2, §3

Sprague-Dawley rats [5] = experiment: Observation of the site of the subcutaneous injection; format: in vivo, rat; conditions: rat, in vivo, sc
Method: as §2

Sprague-Dawley rats [6] = experiment: Anti-inflammatory activity (rat paw oedema) of topical creams; format: in vivo; conditions: topical emulsifying cream
Method: All rat experiments were performed as outlined in Example 7, except for the following changes. In Vivo Anti-inflammatory Activity and Gastric Toxicity. For topical administration, rats were treated with test compositions containing [Cu2(Indo)4(OH2)2] (“CuIndo”), [Zn(Indo)2(OH2)2] (“ZnIndo”), IndoH, or an equivalent Indo and Cu dose of a physical mixture of [Cu2(OAc)4(OH2)2] and IndoH thoroughly mixed in an emulsifying cream (see below). An amount of 0.2 g of the composition was applied to the right hind paw of each animal and gently massaged in for 1 minute at three-hourly intervals. Inflammation was induced at the final topical application with an injection of carrageenan (0.1 mL, 1% w/v in isotonic saline) into the plantar region of the hind paw. The composition for topical application was a composition comprising 0.5-2% w/w of Indo delivered as [Cu2(Indo)4(OH2)2] (“CuIndo”), [Zn(Indo)2(OH2)2] (“ZuIndo”), IndoH or an equivalent Indo and Cu dose of a physical mixture of [Cu2(OAc)4(OH2)2] and IndoH in an emulsifying cream, the emulsifying cream consisting of: […]

Sprague-Dawley rats [7] = experiment: Small intestinal toxicity of topical creams; conditions: rat, in vivo
Method: In Vivo Small Intestinal Toxicity.
All rat experiments were performed as outlined in Example 7, except for the following changes.
In Vivo Anti-inflammatory Activity and Gastric Toxicity. For topical administration, rats were treated with test compositions containing [Cu2(Indo)4(OH2)2] (“CuIndo”), [Zn(Indo)2(OH2)2] (“ZnIndo”), IndoH, or an equivalent Indo and Cu dose of a physical mixture of [Cu2(OAc)4(OH2)2] and IndoH thoroughly mixed in an emulsifying cream (see below). An amount of 0.2 g of the composition was applied to the right hind paw of each animal and gently massaged in for 1 minute at three-hourly intervals. Inflammation was induced at the final topical application with an injection of carrageenan (0.1 mL, 1% w/v in isotonic saline) into the plantar region of the hind paw.

Sprague-Dawley rats [8] = experiment: Acute gastric ulceration after oral administration; format: in vivo, rat; conditions: for gastric ulceration: 10 mg kg^−1 dose of Indo
Method: Gastrointestinal Ulceration: To assess gastric damage, rats (n=4 per group) were fasted overnight with free access to water prior to the oral administration (non-anaesthetized) of the Test Samples or Test Compositions via oral gavage. The controls were dosed with CMC (2%) solution. Three hours after dosing, the rats were euthanised and the stomach was excised and opened by incision along the greater curvature. The stomach was rinsed, submerged in 10% formaldehyde for 1 h and examined to determine the extent of macroscopic gastric damage.
as §1
In order to illustrate the adverse effects of decomposition of the copper complex in the formulation, the gastric toxicity of IndoH, Cu-acetate, a physical mixture of Cu-acetate and IndoH and [Cu2(Indo)4(DMF)2] were tested at equivalent doses of Indo (10 mg kg^−1) and/or Cu in the MCT paste or a 2% (w/v) aqueous solution of carboxymethylcellulose (CMC). The MCT paste formulations were prepared as described in Example 3 but using IndoH, Cu-acetate, a physical mixture of Cu-acetate and IndoH, or [Cu2(Indo)4(DMF)2] instead of [Cu2(Indo)4(OH2)2]. The gastric toxicity was tested as described above. The results of these experiments are illustrated in FIG. 3.
In further experiments designed to test the toxicity of solutions of the Cu complex, the [Cu2(Indo)4(DMF)2] complex was dissolved in DMF and gastric toxicities were assessed. […] Similar results would be expected using other complexes, including [Cu2(Indo)4(OH2)2], in a non-colloidal solution.

COc1ccc2c(c1)c(CC(=O)O)c(C)n2C(=O)c1ccc(Cl)cc1 [IndoH, 1-(4-chlorobenzoyl)-5-methoxy-2-methyl-1H-indole-3-acetic acid]
Small intestine ulceration (mm^2) (Sprague-Dawley rats [1]; listed as Sample I): 177.0±4.4 mm^2
ED50 (Sprague-Dawley rats [2]; delivered in CMC): 2.8 ± 1.7 mg/kg
ED50 (Sprague-Dawley rats [2]; delivered in MCT paste): 1 mg/kg
percent inhibition in rat hind-paw diameter change, 3-hr (Sprague-Dawley rats [2]): 21(8) %
percent inhibition in rat hind-paw diameter change, 3-hr (Sprague-Dawley rats [2]; listed as Indomethacin): 21(8)%
percent inhibition in rat hind-paw diameter change, 5-hr (Sprague-Dawley rats [2]): 25(6) %
percent inhibition in rat hind-paw diameter change, 5-hr (Sprague-Dawley rats [2]; listed as Indomethacin): 25(6)%
Percent inhibition (Sprague-Dawley rats [3]; intramuscular, fasting rats, 5 mg/kg equivalent dose of Indo): 38.7%
Percent inhibition (Sprague-Dawley rats [3]; intramuscular, fasting rats, 10 mg/kg equivalent dose of Indo): 49.4%
Percent inhibition (Sprague-Dawley rats [3]; subcutaneous, 7.5 mg/kg of Indo, non-fasting): 34%
Gastric ulcers (mm^2) (Sprague-Dawley rats [4]; 5 mg/kg): 1, 0, 1, 2 mm^2
Gastric ulcers (mm^2) (Sprague-Dawley rats [4]; 10 mg/kg): 12, 3, 8, 20 mm^2
adverse effect at the site of the injection (Sprague-Dawley rats [5]): None of the rats exhibited soreness, swelling, redness or any other adverse effect
Efficacy (% inhib) (Sprague-Dawley rats [6]; conc. 0.5 % equiv of Indo): 18.6 % inhib
Efficacy (% inhib) (Sprague-Dawley rats [6]; conc. 0.75 % equiv of Indo): 60.8 % inhib
Efficacy (% inhib) (Sprague-Dawley rats [6]; conc. 1 % equiv of Indo): 35 % inhib
Efficacy (% inhib) (Sprague-Dawley rats [6]; conc. 2 % equiv of Indo): 42 % inhib
intestinal bleeding (Sprague-Dawley rats [7]): ^bOvert intestinal bleeding.

COc1ccc2c(c1)c(CC(=O)[O-])c(C)n2C(=O)c1ccc(Cl)cc1.COc1ccc2c(c1)c(CC(=O)[O-])c(C)n2C(=O)c1ccc(Cl)cc1.O.O.[Zn+2] [ZnIndo, [Zn(Indo)2(OH2)2]]
Efficacy (% inhib) (Sprague-Dawley rats [6]; conc. 0.5 % equiv of Indo): 29 % inhib
Efficacy (% inhib) (Sprague-Dawley rats [6]; conc. 1 % equiv of Indo): 41 % inhib

CN(C)C=O.CN(C)C=O.COc1ccc2c(c1)c(CC(=O)[O-])c(C)n2C(=O)c1ccc(Cl)cc1.COc1ccc2c(c1)c(CC(=O)[O-])c(C)n2C(=O)c1ccc(Cl)cc1.COc1ccc2c(c1)c(CC(=O)[O-])c(C)n2C(=O)c1ccc(Cl)cc1.COc1ccc2c(c1)c(CC(=O)[O-])c(C)n2C(=O)c1ccc(Cl)cc1.[Cu+2].[Cu+2] [[Cu2(Indo)4(DMF)2], bis(N,N-dimethylformamide)tetrakis-μ-(O,O′-Indo)dicopper(II)]
gastric ulceration (Sprague-Dawley rats [8]; complex dissolved in DMF alone): > 200 mm^2
gastric ulceration (Sprague-Dawley rats [8]; complex in DMF containing 2% CMC): 100 mm^2
gastric damage in 0.5 mL MCT paste compared with 0.5 mL of 2% (w/v) CMC solution (Sprague-Dawley rats [8]; oral, equivalent doses of Indo (10 mg kg^−1) and/or Cu, FIG. 3): less GI toxicity for the MCT formulation compared to the CMC formulation
gastric ulcerations compared to the control (Sprague-Dawley rats [8]; oral, equivalent doses of Indo (10 mg kg^−1) and/or Cu, [Cu2(Indo)4(DMF)2] in MCT paste, Cu-acetate in CMC solution or MCT paste, FIG. 3): no significant gastric ulcerations
Gastric ulceration (mm^2) (Sprague-Dawley rats [8]; rats fasted overnight, oral gavage, 3 h after dosing, IndoH 10 mg kg^−1, complexes 11 mg kg^−1, mean ± sem, listed as Sample M): 49±7 mm^2 and 49.0±6.7 mm^2
Small intestine ulceration (mm^2) (Sprague-Dawley rats [1]; listed as Sample M): 8.7±2.9 mm^2
